# Measurements as given in publication PMC11048033, “Dual Anti-Inflammatory and Anticancer Activity of Novel 1,5-Diaryl Pyrazole Derivatives: Molecular Modeling, Synthesis, In Vitro Activity, and Dynamics Study” (Biomedicines, 2024).
# Key:
# Human COX-2 = molecular target: T1, Human COX-2 (Homo sapiens, UniProt P35354); assay: In vitro COX-2 enzymatic assay (Cayman COX (human) Inhibitor Screening Assay Kit); type: biochemical
# T1 construct: purchased Cayman Chemicals 701230
# T1 sequence (P35354 18-604): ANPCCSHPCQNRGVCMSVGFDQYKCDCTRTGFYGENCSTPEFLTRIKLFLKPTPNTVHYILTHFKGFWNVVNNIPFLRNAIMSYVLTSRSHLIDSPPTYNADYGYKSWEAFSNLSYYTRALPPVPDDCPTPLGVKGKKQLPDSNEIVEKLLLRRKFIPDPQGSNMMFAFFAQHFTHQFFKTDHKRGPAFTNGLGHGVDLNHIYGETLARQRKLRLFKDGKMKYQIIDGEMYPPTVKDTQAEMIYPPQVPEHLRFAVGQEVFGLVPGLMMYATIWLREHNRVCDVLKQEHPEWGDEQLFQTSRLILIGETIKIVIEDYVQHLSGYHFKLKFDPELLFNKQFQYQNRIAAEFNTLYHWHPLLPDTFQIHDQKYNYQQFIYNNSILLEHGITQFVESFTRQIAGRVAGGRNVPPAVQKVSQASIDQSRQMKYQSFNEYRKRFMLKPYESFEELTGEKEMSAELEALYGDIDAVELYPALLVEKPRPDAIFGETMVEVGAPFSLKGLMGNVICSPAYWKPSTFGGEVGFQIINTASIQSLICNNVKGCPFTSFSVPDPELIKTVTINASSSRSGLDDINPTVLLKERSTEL
# Method: The ability of the compounds to inhibit COX -2 (IC50 values, µM) was determined by using a “COX (human) Inhibitor Screening Assay Kit” procured from Cayman Chemicals (catalog number 701230). With a slight modification in the method as defined in the reference, the COX-2 inhibition assay was performed. Using the percent conversion of arachidonic acid (AA) to PGH2, the enzyme activity was calculated. By enzyme immunoassay PGF2α, which is produced from PGH2 by reduction with stannous chloride, is calculated. The test compounds’ stock solutions are prepared by dissolving in a minimum amount of DMSO. Human COX-2 (10 µL) in the presence of 10 µL of heme was suspended in 0.1M Tris-HCl buffer (pH 8.0) which contains 2 mM phenol and 5 mM EDTA. This was added to various concentrations of test compounds and, on incubating the solutions at 37 °C for 5 min, 10 µL of AA solution were added. Later, the COX reaction was stopped by adding 1M HCl (50 µL) after 2 min. The intensity of the yellow color which is produced as the product of the enzymatic reaction is determined spectrophotometrically. The percent inhibition was calculated by comparing the compound treated to different control incubations. […] The determinations are done in triplicate and the IC50 (µM) was determined using the concentration–inhibition response curve.
# During the initiation of the inflammatory process, the COX enzyme plays a vital role in the progression of inflammatory response. The inflammatory mediators that arise due to the action of COX lead to the chemoattraction of neutrophils, macrophages, eosinophils, etc. […] This was carried out with the help of a COX (human) inhibitor screening assay kit (Item no. 701230) from Cayman chemicals. […] A test substance concentration was considered to be inhibitive when it inhibited human COX-1 or COX-2 by 50%. The compound’s selectivity was measured by its selectivity index values, derived as IC50 (COX-1)/IC50 (COX-2).
# [1] = test system: A549 (human lung adenocarcinoma) cell line; assay: MTT anticancer assay, A549; type: cell-based; conditions: for IC50 against A549: MTT
# Method: The in vitro anticancer activity is determined by counting the viable cells that are stained with a vital dye. The MTT technique is an accurate measure of the activity of live cells using mitochondrial dehydrogenases. The target tumor cells A549 (human lung adenocarcinoma) and HEPG2 (human liver) cell lines are procured from the “National Centre for Cell Science” (NCCS, Pune). The sources of reagents like Trypsin, DMEM, Pen strip, and FBS are procured from Himedia. […] The culture medium was prepared, and the MTT assay was performed as per the general procedure described by Mosmann T. et al., [30] and the % viability of the cells was determined.
# The target compounds tested for in vitro COX-2 were further checked for in vitro anti-cancer activity against A549 (lung cancer) and HepG2 (liver cancer) cell lines using MTT growth inhibition assay. The compounds were tested for cytotoxicity against both the cell lines at concentrations of 6.25, 12.5, 25, 50, and 100 µg/mL. […] Using the graph where % cell viability is plotted versus concentration, the IC50 values are determined with the help of the dose–response regression equation.
Compound,% COX-2 Inhibition (Human COX-2; 0.781 μg/ml) [%],% COX-2 Inhibition (Human COX-2; 1.562 μg/ml) [%],% COX-2 Inhibition (Human COX-2; 3.125 μg/ml) [%],% COX-2 Inhibition (Human COX-2; 6.25 μg/ml) [%],% COX-2 Inhibition (Human COX-2; 12.5 μg/ml) [%],% COX-2 Inhibition (Human COX-2; 25 μg/ml) [%],% COX-2 Inhibition (Human COX-2; 50 μg/ml) [%],% COX-2 Inhibition (Human COX-2; 100 μg/ml) [%],% COX-2 Inhibition (Human COX-2; 250 μg/ml) [%],anti-cancer activity against A549 cell lines (in words) ([1]; A549),"% cell viability ([1]; A549, 6.25 µg/ml) [%]","% cell viability ([1]; A549, 12.5 µg/ml) [%]","% cell viability ([1]; A549, 25 µg/ml) [%]","% cell viability ([1]; A549, 50 µg/ml) [%]","% cell viability ([1]; A549, 100 µg/ml) [%]",concentration at which compound was effective (from % inhibitory values) ([1]; A549 cell lines) [µg/mL],IC50 against A549 ([1]; A549) [µM],Selectivity Index (Human COX-2)
"NS(=O)(=O)c1ccc(-n2nc(C(=O)NN=Cc3cccc(Oc4ccccc4)c3)cc2-c2ccc(Cl)cc2)cc1 [Compound T3, 4-(5-(4-chlorophenyl)-3-(2-(3-phenoxybenzylidene) hydrazine-1-carbonyl)-1H-pyrazol-1-yl) benzenesulfonamide]",55.34 ± 1.03,61.82 ± 1.20,66.67 ± 0.96,71.48 ± 0.78,73.95 ± 0.27,76.28 ± 0.70,78.94 ± 0.72,81.06 ± 0.47,85.38 ± 0.73,active,95.77,86.16,60.37,46.16,24.18,50,40.14,–
"Cc1cc(C=NNC(=O)c2cc(-c3ccc(Br)cc3)n(-c3ccc(S(N)(=O)=O)cc3)n2)cc(C)c1OCc1ccccc1 [Compound T5, 4-(3-(2-(4-(benzyloxy)-3,5-dimethylbenzylidene) hydrazine-1-carbonyl)-5-(4-bromophenyl)-1H-pyrazol-1-yl) benzenesulfonamide]",65.66 ± 1.05,72.1 ± 6.01,78.03 ± 2.98,84.28 ± 2.50,85.04 ± 2.38,86.71 ± 0.50,87.64 ± 1.43,88.64 ± 0.86,89.35 ± 0.86,–,97.15,92.32,72.36,62.43,30.52,–,60.95,7.16
